According to PMC4434572, “Identification of novel drugs to target dormant micrometastases” (BMC Cancer, 2015):
Like-named read-outs stand apart in the source and are kept apart here.

Columns and labels:
4T1 parental cells = experiment: EC50 on parental 4T1 cell line grown on plastic surface; assay type: cell-based, mouse
Description: Because cancer stem cells are highly resistant to conventional chemotherapy and are thought to initiate tumors, the activity of the DT series of drugs was also checked against cancer stem cells obtained from the 4T1 line. […] For comparison the EC50 values of DT310, DT320, and doxorubicin were determined in 4T1 parental cells plated on plastic. Because this assay targeting stem cells was performed in suspension culture, we also tested whether SISgel differentiated the stem cells. As indicated by the presence of pluripotency markers (Nanog, Sox2, Oct4), the cells retained their pluripotency markers on SISgel (Fig. 5). […] The 4T1 stem cells could not be tested on Matrigel or on plastic because they differentiate and are therefore no longer stem cells. 4T1 cancer stem cells were much more sensitive to the DT agents, particularly to DT320, than to conventional chemotherapeutic drugs.

4T1 Luc2-GFP cells = experiment: Orthotopic 4T1 syngeneic model of triple-negative breast cancer with natural lung metastasis; assay type: in vivo, BALB/c mice; details: for number of large multicellular micrometastases and vascularized macrometastases to the lung: i.p. or osmotic pump
Description: 4T1 Luc2-GFP cells (PerkinElmer, Waltham, MA) were cultured in DMEM high glucose media with 2 mM pyruvate, 2 mM glutamine, 2 % Pen/Strep and 10 % Cosmic Calf Serum (Mediatech, Manassas, VA). To prepare cells for injection they were removed from flasks, counted using the TC10 counting system (BioRad, Hercules, CA) and checked for viability. Cells were then washed with PBS, pelleted and taken up at a concentration of 75,000 cells/ml; 100 μl of cell suspension (7,500 cells) was injected subcutaneously (bevel side up) into mammary fat pad #4 of 8 weeks old female BALB/c mice (NCI National Laboratory Frederick/Charles River animal production program). All animals were weighed and tumors were measured using calipers three times weekly. Beginning one week after implantation, which is when micrometastatic cells begin to arrive in the lungs, animals were treated three times per week with intraperitoneal DT310 or DT320 at their NOAEL dose of 75 mg/kg three times week dissolved in saline or by osmotic pump. The osmotic pumps (Alzet #2004) delivered an NOAEL dose of 23.4 and 26.7 μg/h of DT310 and DT320, respectively, for 4 weeks and were implanted as directed subcutaneously posterior to scapulae. Docetaxel was delivered once weekly intraperitoneally at its MTD of 15 mg/kg and doxorubicin delivered once weekly at its MTD of 1 mg/kg in 5 % N-Methyl-2-pyrrolidone, 5 % Solutol HS, and 90 % saline. GFP positive cells were imaged with excitation of GFP emission using a Leica Model Z16 APO fluorescence microscope equipped for a wide field, a large depth of field and 0.57–9.2X zoom capability. GFP-positive objects were counted and scored as to whether they were […], clumps of less than ten cells without a visible vasculature, as determined by co-injection of tetramethylrhodamine labeled dextran (2 million MW).

[1] = tested on: 4T1 stem cells (CD44v3highALDH1high 4T1 cells); experiment: Tumor cell growth inhibition of sphere-derived cancer stem cells (CellTiter-Glo); assay type: cell-based, mouse; details: for Fold change: stem cell EC50 vs parental EC50
Description: Sphere formation to further increase the fraction of cancer stem cells was induced by suspending CD44v3highALDH1high 4T1 cells in 1:1 Matrigel/basal medium in a total of volume of 100 μl. Samples (5 × 10^4 cells) were then plated around the rims of wells in a 12-well plate and allowed to solidify at 37 °C for 10 min before 1 ml basal medium (with B27 plus 20 ng/mL EGF, 10 ng/mL FGF and 4 μg/mL insulin) was added. Medium was replenished every 3-days. Ten days after plating, spheres (tight, spherical, nonadherent masses >40 μm in diameter) per well were counted, and at least 100 spheres per group were measured. The number of spheres containing CD44v3highALDH1high 4T1 cells in each well and expressed as sphere forming units (SFU) as described previously. The number of SFUs per well was counted in triplicate wells for each condition.
To recover CD44v3highALDH1high 4T1 cells from the spheres, Matrigel–containing wells were treated with 1 mg/ml Dispase solution (Gibco). Spheres were then digested with trypsin and 0.05 % EDTA. CD44v3highALDH1high cells dissociated from spheres were counted by hemacytometer and replated to generate spheres of next generation. Serial passage of individual spheres was regularly performed in order to verify self-renewal capability of cells associated the spheres. Measurement of growth for CD44v3highALDH1high cells (dissociated from spheres) was also performed by incubating these cells in serum-free RPMI-1640 medium for 3-weeks using MTT-based growth assay as described previously.
To analyze tumor cell growth properties, sphere-derived CD44v3highALDH1high 4T1 cells were incubated in basal medium (with B27 plus 20 ng/mL EGF, 10 ng/mL FGF and 4 μg/mL insulin). Medium was replenished every 3-days. Twenty-one days after plating, the number of cell growth was then counted under a microscope at low magnification. In some cases, these sphere-derived CD44v3highALDH1high 4T1 cells were also treated with DT compounds for 5 days or doxorubicin (range 1 μM to 1 mM) for 5 days at 37 °C. The CellTiter-Glo® Luminescent Cell Viability Assay (Promega, Madison, WI) was utilized to determine the number of metabolically active cells based on the quantification of adenosine triphosphate (ATP). The percentage of […] relative to untreated controls was plotted as a linear function of drug concentration. The 50 % inhibitory concentration (IC50) was identified as the concentration of drug required to achieve a 50 % growth inhibition relative to untreated controls.
A stem cell–enriched cell population was prepared as described previously by sorting for ALDH1 and CD44v3. The identification of aldehyde dehydrogenase1 (ALDH1) activity from tumor–derived 4T1 Luc2-GFP cells (PerkinElmer, Waltham, MA) was conducted using the ALDEFLUOR kit (StemCell Technologies, Durham, NC). Specifically, tumor cells were suspended in ALDEFLUOR assay buffer containing ALDH1 substrate (BAAA, […] per 1 × 10^6 cells) and incubated for 30 min at 37 °C. As a negative control, 4T1 cells were treated with a specific ALDH1 inhibitor, […] diethylaminobenzaldehyde (DEAB). Next, for labeling cell surface marker, tumor–derived 4T1 cells were suspended in 100 μl ALDEFLUOR buffer followed by incubating with 20 μl allophycocyanin (APC)-labeled anti-CD44v3 antibody (recognizing the v3-specific domain of CD44) or APC-labeled normal mouse IgG (as a control) (BD Bioscience, San Jose, CA) for 15 min at 4 °C. For FACS sorting, tumor cells were incubated in PBS buffer followed by FACS (BD FACS Aria llu, BD Bioscience, San Jose, CA) sorting using dual-wavelength analysis as described previously. The parental cell line contained 2 % CD44v3highALDH1high cells but the final sorted cells contained 18 % CD44v3highALDH1high cells, a 9-fold enrichment.

[2] = i.p. injection or osmotic pump, vs untreated
[3] = suspension culture, 5 days, read-out: EC50 4T1 stem cells in suspension culture

| SMILES | EC50 (4T1 parental cells; Mus musculus, 4T1) [µM] | primary tumor growth (4T1 Luc2-GFP cells; administered i.p. at MTD) | number of large multicellular micrometastases and vascularized macrometastases to the lung (4T1 Luc2-GFP cells) | EC50 ([1]; Mus musculus, 4T1, 120 h, suspension culture, 5 days, read-out: EC50 4T1 stem cells in suspension culture) [µM] | Fold change [1] | EC50 (4T1 parental cells; plastic surface) [µM] | primary tumor growth (4T1 Luc2-GFP cells; [2]) | number of single micrometastatic cells and small micrometastases in lung (4T1 Luc2-GFP cells; osmotic pump administration) | EC50 [1, 3] [µM] | EC50 ([1]; grown on SISgel, read-out: EC50 4T1 stem cells grown on SISgel) [µM] |
| --- | --- | --- | --- | --- | --- | --- | --- | --- | --- | --- |
| COc1cccc2c1C(=O)c1c(O)c3c(c(O)c1C2=O)C[C@@](O)(C(=O)CO)C[C@@H]3O[C@H]1C[C@H](N)[C@H](O)[C@H](C)O1 [Doxorubicin, reference compound] | 4.7 | small effect | only minimal effects | 630 | 134.0 |  |  |  |  |  |
| O=S(=O)([O-])c1ccc2c(N=Nc3cccc4ccccc34)c(O)c(S(=O)(=O)[O-])cc2c1.[Na+].[Na+] [DT310, 4-(1-naphthalenylhydrazinylidene) -3-oxonaphthalene-2,7-disulfonic acid] |  |  | most sharply |  | 9.8 | 14.4 | significant reduction | significant effect | 141 |  |
| O=S(=O)([O-])c1cc(O)c2c(O)c(N=Nc3cccc4ccccc34)c(S(=O)(=O)[O-])cc2c1.[Na+].[Na+] [DT320, 4,5-Dihydroxy-3-(1-naphthalenylazo)-2,7-naphthalenedisulfonic acid disodium salt] |  |  |  |  | 2.5 | 19.7 | significant reduction |  | 50 | 71 |
